Source: patent US20260151372A1, “AZOTOMYCIN PRODRUGS WITH PREFERENTIAL TUMOR DELIVERY” (The Johns Hopkins University, priority 2022, published 2026)

Columns and labels:
Type in all cases: in vitro ADME
[1] = Metabolic stability in CES1-KO mouse liver homogenate; details: tissue homogenate, 10 μM, 37° C.
Protocol: (§1) In vitro stability studies were done using CES1KO mouse plasma, human plasma, CES1-KO mouse liver, and human liver microsomes as previously described. For tissue homogenate stability studies, washed tissue was diluted 10-fold in 0.1 M potassium phosphate buffer and homogenized using probe sonication. Crude homogenate was then aliquoted to 1 mL, and spiked with 10 mM stock of the analyte in DMSO to achieve a 10 μM final concentration. The plasma stability of the prodrugs was determined by spiking the analyte in 1 mL of plasma. The plasma and tissues were incubated in an orbital shaker at 37° C. Stability in human liver microsomes was assessed at a final prodrug concentration of 1 μM with 0.2 mg/mL protein for microsomes. All the stability studies were conducted at predetermined times (0 and 60 min), where 50 μL aliquots of the mixture in triplicate were removed and the reaction was quenched by addition of 5 times the volume of ice-cold methanol spiked with the internal standard (losartan: 0.5 μM). The samples were vortex-mixed for 30 s and centrifuged at 10,000 g for 10 min at 4° C. An amount of 50 μL of the supernatant was diluted with 50 μL of water and transferred to a 250 μL polypropylene vial sealed with a Teflon cap. Prodrug disappearance was monitored over time using liquid chromatography and mass spectrometry (LC-MS).
(§2) Analyses were performed on a Dionex ultra high-performance LC system coupled with Q Exactive Focus orbitrap mass spectrometer (Thermo Fisher Scientific Inc., Waltham MA). Separation was achieved using Agilent Eclipse Plus column (100×2.1 mm i.d., maintained at 35° C.) packed with a 1.8 μm C18 stationary phase. The mobile phase consisted of 0.1% formic acid in water and 0.1% formic acid in acetonitrile, […] were operated at a flow rate of 0.3 mL/min for 7 min using gradient elution. The mass spectrometer controlled by Xcalibur software 4.0.27.13 (Thermo Scientific) was operated with a HESI ion source in positive ionization mode. Metabolites were identified in the full-scan mode (from m/z 50 to 1600) by comparing […] samples

[2] = Metabolic stability in human liver microsomes; details: 1 μM prodrug, 0.2 mg/mL protein
Protocol: as §1, §2

[3] = Plasma stability in CES1KO mouse plasma; details: 37° C., 60 min
Protocol: as §1, §2

[4] = Plasma stability in human plasma; details: 37° C.
Protocol: as §1, §2

Compound	Liver Stability (% Remaining at 60 min) CES1^−/− Mouse Liver [1]	Liver Stability (% Remaining at 60 min) Human Liver Microsomes [2]	Plasma Stability (% Remaining at 60 min) CES1^−/− Mouse Plasma [3]	Plasma Stability (% Remaining at 60 min) Human Plasma [4]
CC(C)(C)OC(=O)[C@H](CCC(=O)C=[N+]=[N-])NC(=O)[C@H](CCC(=O)C=[N+]=[N-])NC(=O)CC[C@H](N)C(=O)OC(C)(C)C [Prodrug P1, tert-Butyl (S)-2-((S)-2-((S)-4-amino-5-(tert-butoxy)-5-oxopentanamido)-6-diazo-5-oxohexanamido)-6-diazo-5-oxohexanoate]	87.0 ± 8.51%	105 ± 0.859%	101 ± 3.38%	104 ± 1.00%
CC(=O)N[C@@H](CCC(=O)N[C@@H](CCC(=O)C=[N+]=[N-])C(=O)N[C@@H](CCC(=O)C=[N+]=[N-])C(=O)OC(C)(C)C)C(=O)OC(C)(C)C [Prodrug P2]	100 ± 1.67%	85.3 ± 7.88%	104 ± 2.31%	110 ± 4.70%
CN(C)CC(=O)N[C@@H](CCC(=O)N[C@@H](CCC(=O)C=[N+]=[N-])C(=O)N[C@@H](CCC(=O)C=[N+]=[N-])C(=O)[O-])C(=O)OC(C)(C)C.[Na+] [Prodrug P14, Sodium (6S,11S,14S)-6-(tert-butoxycarbonyl)-11,14-bis(4-diazo-3-oxobutyl)-2-methyl-4,9,12-trioxo-2,5,10,13-tetraazapentadecan-15-oate]	82.4 ± 4.03%	103 ± 2.31%	111 ± 4.09%	96.2 ± 3.21%
CC(C)OC(=O)[C@H](CCC(=O)C=[N+]=[N-])NC(=O)[C@H](CCC(=O)C=[N+]=[N-])NC(=O)CC[C@H](NC(=O)[C@H](CCCNC(N)=O)NC(=O)[C@@H](N)C(C)C)C(=O)OC(C)C [Prodrug P18, Isopropyl (6S,9S,14S,17S)-1-amino-6-((S)-2-amino-3-methylbutanamido)-14,17-bis(4-diazo-3-oxobutyl)-9-(isopropoxycarbonyl)-1,7,12,15-tetraoxo-2,8,13,16-tetraazaoctadecan-18-oate]	0.11 ± 0.03%	84.9 ± 2.30%	105 ± 5%	105 ± 4.81%
CC(C)OC(=O)[C@H](CCC(=O)C=[N+]=[N-])NC(=O)[C@H](CCC(=O)C=[N+]=[N-])NC(=O)CC[C@H](N)C(=O)OC(C)C [Prodrug P9, Isopropyl (S)-2-((S)-2-((S)-4-amino-5-isopropoxy-5-oxopentanamido)-6-diazo-5-oxohexanamido)-6-diazo-5-oxohexanoate]	0.320 ± 0.026%	>100%	84.3 ± 10.5%	85.9 ± 3.63%
CC(C)C[C@H](N)C(=O)N[C@@H](CCC(=O)N[C@@H](CCC(=O)C=[N+]=[N-])C(=O)N[C@@H](CCC(=O)C=[N+]=[N-])C(=O)[O-])C(=O)[O-].[Na+].[Na+] [Prodrug P16, Sodium (S)-2-((S)-2-((S)-4-((S)-2-amino-4-methylpentanamido)-4-carboxylatobutanamido)-6-diazo-5-oxohexanamido)-6-diazo-5-oxohexanoate]	4.50 ± 1.58%	91.0 ± 1.01%	4.17 ± 0.58%	87.4 ± 1.61%
CC(=O)NCCCC[C@H](NC(=O)C12CC3CC(CC(C3)C1)C2)C(=O)N[C@@H](CCC(=O)N[C@@H](CCC(=O)C=[N+]=[N-])C(=O)N[C@@H](CCC(=O)C=[N+]=[N-])C(=O)OC(C)C)C(=O)OC(C)C [Prodrug P19, Isopropyl (2S,5S,10S,13S)-13-((3S,5S,7S)-adamantane-1-carboxamido)-2,5-bis(4-diazo-3-oxobutyl)-10-(isopropoxycarbonyl)-4,7,12,19-tetraoxo-3,6,11,18-tetraazaicosanoate]	0.502 ± 0.103%	74.1 ± 2.10%	85.1 ± 0.64%	97.0 ± 4.11%
[N-]=[N+]=CC(=O)CC[C@H](NC(=O)[C@H](CCC(=O)C=[N+]=[N-])NC(=O)CC[C@H](N)C(=O)O)C(=O)O [Azotomycin]	89.7 ± 0.88%	23.7 ± 0.333%	105 ± 7.64%	74.3 ± 1.20%

Next, values leading:

Liver Stability (% Remaining at 60 min) CES1^−/− Mouse Liver [1]	Liver Stability (% Remaining at 60 min) Human Liver Microsomes [2]	Plasma Stability (% Remaining at 60 min) CES1^−/− Mouse Plasma [3]	Plasma Stability (% Remaining at 60 min) Human Plasma [4]	Compound
49.7 ± 0.333%	95.8 ± 0.141%	99.3 ± 1.45%	109 ± 1.00%	CN(C)CC(=O)N[C@@H](Cc1c[nH]c2ccccc12)C(=O)N[C@@H](CCC(=O)N[C@@H](CCC(=O)C=[N+]=[N-])C(=O)N[C@@H](CCC(=O)C=[N+]=[N-])C(N)=O)C(N)=O [Prodrug P8, (S)—N1-((S)-1-(((S)-1-Amino-6-diazo-1,5-dioxohexan-2-yl)amino)-6-diazo-1,5-dioxohexan-2-yl)-4-((S)-2-(2-(dimethylamino)acetamido)-3-(1H-indol-3-yl)propanamido)pentanediamide]
4.33 ± 0.882%	95.4 ± 0.595%	87.7 ± 8.51%	97.3 ± 2.85%	[N-]=[N+]=CC(=O)CC[C@H](NC(=O)[C@H](CCC(=O)C=[N+]=[N-])NC(=O)CC[C@H](N)C(N)=O)C(N)=O [Prodrug P5, (S)-4-Amino-N1-((S)-1-(((S)-1-amino-6-diazo-1,5-dioxohexan-2-yl)amino)-6-diazo-1,5-dioxohexan-2-yl)pentanediamide]
85.0 ± 5.86%	98.5 ± 0.676%	99.0 ± 3.51%	105 ± 1.76%	CC(=O)N[C@@H](CCC(=O)N[C@@H](CCC(=O)C=[N+]=[N-])C(=O)N[C@@H](CCC(=O)C=[N+]=[N-])C(N)=O)C(N)=O [Prodrug P6, (S)-4-Acetamido-N1-((S)-1-(((S)-1-amino-6-diazo-1,5-dioxohexan-2-yl)amino)-6-diazo-1,5-dioxohexan-2-yl)pentanediamide]
109 ± 10.0%	95.3 ± 0.168%	98.0 ± 12.5%	98.7 ± 2.67%	CN(C)CC(=O)N[C@@H](CCC(=O)N[C@@H](CCC(=O)C=[N+]=[N-])C(=O)N[C@@H](CCC(=O)C=[N+]=[N-])C(N)=O)C(N)=O [Prodrug P7, (S)—N1-((S)-1-(((S)-1-Amino-6-diazo-1,5-dioxohexan-2-yl)amino)-6-diazo-1,5-dioxohexan-2-yl)-4-(2-(dimethylamino)acetamido)pentanediamide]
